Experimental data published in US20170151351A1, “Gd-ENCAPSULATED CARBON DOTS AND METHODS OF MAKING AND USING THEREOF” (University of Georgia Research Foundation, Inc., priority 2015, published 2017).

Tests used:
[1] = tested on: U87MG (human glioma) cells; experiment: MTT cytotoxicity assay; format: cell-based; settings: in the presence of 2.5 mM Ca(II)
Experimental: The cytotoxicity of Gd@C-dots was evaluated with U87MG (human glioma) cells using 3-(4, 5-dimethylthiazolyl-2)-2,5-diphenyltetrazolium bromide (MTT) assays. 2.5 mM Ca(II) was added into the incubation medium; while posing no direct toxicities to cells, such a high concentration of calcium can cause transmetallation to Gd complexes, leading to liberation of free Gd (Corot, C., et al., J. Magn. Reson. Imaging 1998, 8:695). […] The low toxicity was again attributed to the great resistance of Gd@C-dots against biodegradation and transmetallation.
c(RGDyK) affords strong binding affinity toward integrin αvβ3, a cancer biomarker that is seen overexpressed on neoplastic blood vessels and in many types of cancer cells. So the resulting conjugates (hereafter designated as RGD-Gd@C-dots) and unmodified Gd@C-dots were incubated with U87MG cells and imaged under a fluorescence microscope (ex/em: 360/460 nm). Specifically, U87MG cells were cultured in DMEM supplemented with 2 mM L-glutamine, 1.5 g/L sodium bicarbonate, 0.1 mM nonessential amino acids, 1.0 mM sodium pyruvate, and 10% fetal bovine serum at 37° C. in a humidified atmosphere with 5% CO2. 10^5 U87MG cells were seeded in 96-well plates (1×10^4 cells per well) 24 h prior to the experiments. […] The slides were mounted and imaged under an Olympus X71 fluorescence microscope.

[2] = at 7T, literature comparison; cited from earlier work
[3] = tested on: U87MG (human glioma) cells; settings: no added Ca(II); cited from earlier work

O=C([O-])CN(CCN(CC(=O)[O-])CC(=O)O)CCN(CC(=O)[O-])CC(=O)O.[Gd+3] [Gd-DTPA]
IC50 (cytotoxicity) [1]: 33.1 µg/mL
r1 relaxivity [2]: 3.1 mM⁻¹ s⁻¹
toxicity under normal cell culture conditions [3]: no toxicities
